Measurements reported in PMC5218480 (PLoS ONE, 2017).

System: MV-4-11 cells
Experiment: Gene expression microarray analysis (Affymetrix PrimeView) and GSEA
Type: cell-based, human
Design: RFU PODN (11730768_x_at) / Fold change /veh PODN (11730768_x_at) / RFU LINC00158 (11744669_a_at) / Fold change /veh LINC00158 (11744669_a_at) / RFU DUSP10 (11751237_a_at) / Fold change /veh DUSP10 (11751237_a_at) / RFU ID3 (11757404_x_at) / Fold change /veh ID3 (11757404_x_at) / RFU PLEKHG5 (11737974_s_at) / Fold change /veh PLEKHG5 (11737974_s_at) / RFU LRRC4B (11730491_at) / Fold change /veh LRRC4B (11730491_at) / RFU GIMAP4 (11747438_a_at) / Fold change /veh GIMAP4 (11747438_a_at) / RFU KRT8 (11758183_x_at) / Fold change /veh KRT8 (11758183_x_at) / RFU CNN1 (11734310_a_at) / Fold change /veh CNN1 (11734310_a_at) / RFU VPS37D (11726825_at) / Fold change /veh VPS37D (11726825_at) / RFU C10orf10 (11716522_x_at) / Fold change /veh C10orf10 (11716522_x_at) / RFU KIR2DL2 /// KIR2DL4 /// KIR2DL5A /// KIR2DL5B /// KIR2DS1 /// KIR2DS2 /// KIR2DS3 /// KIR2DS4 /// KIR3DL3 /// KIR3DL3 /// KIR3DS1 (11738374_at) / Fold change /veh KIR2DL2 /// KIR2DL4 /// KIR2DL5A /// KIR2DL5B /// KIR2DS1 /// KIR2DS2 /// KIR2DS3 /// KIR2DS4 /// KIR3DL3 /// KIR3DL3 /// KIR3DS1 (11738374_at) / RFU C1QL1 (11718748_at) / Fold change /veh C1QL1 (11718748_at) / RFU TMPRSS4 (11747572_a_at) / Fold change /veh TMPRSS4 (11747572_a_at) / RFU HAMP (11756126_x_at) / Fold change /veh HAMP (11756126_x_at) / RFU RNFT2 (11725882_a_at) / Fold change /veh RNFT2 (11725882_a_at) / RFU NR4A2 (11747474_a_at) / Fold change /veh NR4A2 (11747474_a_at) / RFU ABCC12 (11746883_a_at) / Fold change /veh ABCC12 (11746883_a_at) / RFU TMEM136 (11760407_x_at) / Fold change /veh TMEM136 (11760407_x_at) / RFU CLDN22 /// WWC2 (11732394_at) / Fold change /veh CLDN22 /// WWC2 (11732394_at) / RFU HLA-DPB1 (11760878_x_at) / Fold change /veh HLA-DPB1 (11760878_x_at) / RFU SPINT1 (11716480_a_at) / Fold change /veh SPINT1 (11716480_a_at) / RFU GAP43 (11754022_s_at) / Fold change /veh GAP43 (11754022_s_at) / RFU A4GNT (11735810_at) / Fold change /veh A4GNT (11735810_at) / RFU PRB3 (11715151_x_at) / Fold change /veh PRB3 (11715151_x_at) / RFU TUBB4B (11761932_at) / Fold change /veh TUBB4B (11761932_at) / RFU CAPN14 (11732068_a_at) / Fold change /veh CAPN14 (11732068_a_at) / RFU TMCC2 (11721928_a_at) / Fold change /veh TMCC2 (11721928_a_at) / RFU IRGQ (11745062_a_at) / Fold change /veh IRGQ (11745062_a_at) / RFU FAM174B (11720279_a_at) / Fold change /veh FAM174B (11720279_a_at) / RFU TMPRSS4 (11748680_a_at) / Fold change /veh TMPRSS4 (11748680_a_at) / RFU FAM212B (11763350_a_at) / Fold change /veh FAM212B (11763350_a_at) / RFU PLEKHG5 (11743358_a_at) / Fold change /veh PLEKHG5 (11743358_a_at) / RFU ZSCAN30 (11745921_a_at) / Fold change /veh ZSCAN30 (11745921_a_at) / RFU CMKLR1 (11741424_a_at) / Fold change /veh CMKLR1 (11741424_a_at) / RFU LOC101060620 /// MAPK8IP1 (11723275_at) / Fold change /veh LOC101060620 /// MAPK8IP1 (11723275_at) / RFU SPTSSB (11747773_x_at) / Fold change /veh SPTSSB (11747773_x_at) / RFU PRSS12 (11739890_at) / Fold change /veh PRSS12 (11739890_at) / RFU BIN1 (11741810_x_at) / Fold change /veh BIN1 (11741810_x_at) / RFU WNT11 (11732464_a_at) / Fold change /veh WNT11 (11732464_a_at) / RFU C10orf10 (11716521_a_at) / Fold change /veh C10orf10 (11716521_a_at) / RFU C5orf56 (11738089_at) / Fold change /veh C5orf56 (11738089_at) / RFU CYB561 (11721691_x_at) / Fold change /veh CYB561 (11721691_x_at) / RFU ANKRD19P (11752326_a_at) / Fold change /veh ANKRD19P (11752326_a_at) / RFU OR2T12 /// OR2T33 /// OR2T8 (11738714_s_at) / Fold change /veh OR2T12 /// OR2T33 /// OR2T8 (11738714_s_at) / RFU VCAN (11748164_a_at) / Fold change /veh VCAN (11748164_a_at) / RFU JSRP1 (11732532_at) / Fold change /veh JSRP1 (11732532_at) / RFU KRTAP10-11 (11738290_x_at) / Fold change /veh KRTAP10-11 (11738290_x_at) / RFU MYO3A (11730013_a_at) / Fold change /veh MYO3A (11730013_a_at) / RFU EBF3 (11725865_a_at) / Fold change /veh EBF3 (11725865_a_at) / RFU CAMK2N1 (11719241_x_at) / Fold change /veh CAMK2N1 (11719241_x_at) / RFU C5orf56 (11738088_a_at) / Fold change /veh C5orf56 (11738088_a_at) / RFU OLFML3 (11715873_a_at) / Fold change /veh OLFML3 (11715873_a_at) / RFU LOC100653217 /// NTM (11731650_a_at) / Fold change /veh LOC100653217 /// NTM (11731650_a_at) / RFU MAPK11 (11762145_a_at) / Fold change /veh MAPK11 (11762145_a_at) / RFU FIZ1 (11724087_x_at) / Fold change /veh FIZ1 (11724087_x_at) / RFU OASL (11726364_x_at) / Fold change /veh OASL (11726364_x_at) / RFU SOX15 (11748057_x_at) / Fold change /veh SOX15 (11748057_x_at) / RFU CD79A (11719716_a_at) / Fold change /veh CD79A (11719716_a_at) / RFU HIST1H1D (11736915_at) / Fold change /veh HIST1H1D (11736915_at) / RFU CASKIN2 (11723855_a_at) / Fold change /veh CASKIN2 (11723855_a_at) / RFU LOC730098 (11760151_x_at) / Fold change /veh LOC730098 (11760151_x_at) / RFU OR4N2 (11742367_at) / Fold change /veh OR4N2 (11742367_at) / RFU PRRT2 (11749266_a_at) / Fold change /veh PRRT2 (11749266_a_at) / RFU SNX32 (11753110_a_at) / Fold change /veh SNX32 (11753110_a_at) / RFU CDHR5 (11726645_a_at) / Fold change /veh CDHR5 (11726645_a_at) / RFU RCAN1 (11760418_a_at) / Fold change /veh RCAN1 (11760418_a_at) / RFU FAM167A (11723789_a_at) / Fold change /veh FAM167A (11723789_a_at) / RFU FAM26E (11764081_at) / Fold change /veh FAM26E (11764081_at) / RFU ISYNA1 (11749810_s_at) / Fold change /veh ISYNA1 (11749810_s_at) / RFU ACY1 (11761880_at) / Fold change /veh ACY1 (11761880_at) / RFU 11764098_at / Fold change /veh 11764098_at / RFU SAMD14 (11745864_x_at) / Fold change /veh SAMD14 (11745864_x_at) / RFU NPB (11741838_a_at) / Fold change /veh NPB (11741838_a_at) / RFU TMPRSS6 (11731388_a_at) / Fold change /veh TMPRSS6 (11731388_a_at) / RFU KRTAP10-2 (11738614_at) / Fold change /veh KRTAP10-2 (11738614_at) / RFU ARHGAP8 /// PRR5-ARHGAP8 (11727945_x_at) / Fold change /veh ARHGAP8 /// PRR5-ARHGAP8 (11727945_x_at) / RFU KRTAP5-7 /// NADSYN1 (11734609_at) / Fold change /veh KRTAP5-7 /// NADSYN1 (11734609_at) / RFU RASL12 (11751679_a_at) / Fold change /veh RASL12 (11751679_a_at) / RFU CDKN2B (11736163_a_at) / Fold change /veh CDKN2B (11736163_a_at) / RFU PRF1 (11729649_at) / Fold change /veh PRF1 (11729649_at) / RFU, ZNF638 /// ZNF638-IT1 / Fold change vs veh, ZNF638 /// ZNF638-IT1 / RFU, PANK3 / Fold change vs veh, PANK3 / RFU, SH3YL1 / Fold change vs veh, SH3YL1 / RFU, ZEB2 / Fold change vs veh, ZEB2 / RFU, NRIP1 / Fold change vs veh, NRIP1 / RFU, PTTG1IP / Fold change vs veh, PTTG1IP / RFU, CAPN2 / Fold change vs veh, CAPN2 / RFU, MED14 / Fold change vs veh, MED14 / RFU, SNORA58 / Fold change vs veh, SNORA58 / RFU, C1orf63 / Fold change vs veh, C1orf63 / RFU, LRRFIP1 / Fold change vs veh, LRRFIP1 / RFU, NDUFAF7 / Fold change vs veh, NDUFAF7 / RFU, SLC12A2 / Fold change vs veh, SLC12A2 / RFU, IBTK / Fold change vs veh, IBTK / RFU, ESF1 / Fold change vs veh, ESF1 / Fold change vs veh, TMEM50B / RFU, TAOK1 / Fold change vs veh, TAOK1 / RFU, ACBD3 / Fold change vs veh, ACBD3 / RFU, TMA16 / Fold change vs veh, TMA16 / RFU, RWDD3 / Fold change vs veh, RWDD3 / RFU, BCAT1 / Fold change vs veh, BCAT1 / RFU, EDEM3 / Fold change vs veh, EDEM3 / RFU, TMEM33 / Fold change vs veh, TMEM33 / RFU, WDR75 / Fold change vs veh, WDR75 / RFU, AHCTF1 / Fold change vs veh, AHCTF1 / RFU, TFRC / Fold change vs veh, TFRC / RFU, ZDHHC17 / Fold change vs veh, ZDHHC17 / RFU, NOM1 / Fold change vs veh, NOM1 / RFU, ARL8B / Fold change vs veh, ARL8B / RFU, ZBTB11 / Fold change vs veh, ZBTB11 / RFU, TAMM41 / Fold change vs veh, TAMM41 / RFU, KIAA1704 /// LOC100996395 / Fold change vs veh, KIAA1704 /// LOC100996395 / RFU, ING1 / Fold change vs veh, ING1 / RFU, TRMT61B / Fold change vs veh, TRMT61B / RFU, FUBP3 / Fold change vs veh, FUBP3 / RFU, TP53 / Fold change vs veh, TP53 / RFU, TNKS2 / Fold change vs veh, TNKS2 / RFU, ZFP14 / Fold change vs veh, ZFP14 / RFU, ACTR2 / Fold change vs veh, ACTR2 / RFU, PPP3R1 / Fold change vs veh, PPP3R1 / RFU, PIK3R1 / Fold change vs veh, PIK3R1 / RFU, HNRNPA1 / Fold change vs veh, HNRNPA1 / RFU, RNF170 / Fold change vs veh, RNF170 / RFU, ZNF28 / Fold change vs veh, ZNF28 / RFU, RNGTT / Fold change vs veh, RNGTT / RFU, OGT / Fold change vs veh, OGT / RFU, BRD1 / Fold change vs veh, BRD1 / RFU, MARS / Fold change vs veh, MARS / RFU, ZNF655 / Fold change vs veh, ZNF655 / RFU, FAHD1 / Fold change vs veh, FAHD1 / RFU, BDP1 / Fold change vs veh, BDP1 / RFU, LRRCC1 / Fold change vs veh, LRRCC1 / RFU, ARID1A / Fold change vs veh, ARID1A / RFU, ZNF146 / Fold change vs veh, ZNF146 / RFU, ZNF330 / Fold change vs veh, ZNF330 / RFU, GPN3 / Fold change vs veh, GPN3 / RFU, C9orf123 / Fold change vs veh, C9orf123 / RFU, N4BP2L2 / Fold change vs veh, N4BP2L2 / RFU, ARFIP1 / Fold change vs veh, ARFIP1 / RFU, FAM179B / Fold change vs veh, FAM179B / RFU, BCL10 / Fold change vs veh, BCL10 / RFU, UHRF1BP1L / Fold change vs veh, UHRF1BP1L / RFU, BET1 / Fold change vs veh, BET1 / RFU, CNOT2 / Fold change vs veh, CNOT2 / RFU, ZNF268 / Fold change vs veh, ZNF268 / Fold change vs veh, ZNF507 / RFU, DGCR2 / Fold change vs veh, DGCR2 / RFU, WDSUB1 / Fold change vs veh, WDSUB1 / Fold change vs veh, HSP90B1 /// MIR3652 / RFU, ADSS / Fold change vs veh, ADSS / RFU, GK / Fold change vs veh, GK / RFU, ZNF148 / Fold change vs veh, ZNF148 / RFU, TAF9 / Fold change vs veh, TAF9 / RFU, SLC1A5 / Fold change vs veh, SLC1A5 / RFU, SLMO2 / Fold change vs veh, SLMO2 / RFU, ABCC4 / Fold change vs veh, ABCC4 / RFU, LOC101060439 /// RAP1B / Fold change vs veh, LOC101060439 /// RAP1B / RFU, RFX7 / Fold change vs veh, RFX7 / RFU, GTPBP10 / Fold change vs veh, GTPBP10 / RFU, CNEP1R1 / Fold change vs veh, CNEP1R1 / RFU, BIVM-ERCC5 /// ERCC5 / Fold change vs veh, BIVM-ERCC5 /// ERCC5 / RFU, ILF3 / Fold change vs veh, ILF3 / RFU 11762660_at / Fold change /veh 11762660_at / RFU VCAN (11757783_s_at) / Fold change /veh VCAN (11757783_s_at) / RFU DDX43 (11728927_at) / Fold change /veh DDX43 (11728927_at) / RFU KRT8 (11758188_x_at) / Fold change /veh KRT8 (11758188_x_at) / RFU NKD1 (11759106_at) / Fold change /veh NKD1 (11759106_at) / RFU SRD5A1 (11742802_a_at) / Fold change /veh SRD5A1 (11742802_a_at) / RFU TPSAB1 /// TPSB2 (11721975_s_at) / Fold change /veh TPSAB1 /// TPSB2 (11721975_s_at) / RFU GSTM3 (11746129_a_at) / Fold change /veh GSTM3 (11746129_a_at) / RFU IL23R (11737362_x_at) / Fold change /veh IL23R (11737362_x_at) / RFU TMEM51 (11727254_a_at) / Fold change /veh TMEM51 (11727254_a_at) / RFU PIWIL2 (11732686_x_at) / Fold change /veh PIWIL2 (11732686_x_at) / RFU ORM1 (11744905_x_at) / Fold change /veh ORM1 (11744905_x_at) / RFU CCDC152 (11743942_at) / Fold change /veh CCDC152 (11743942_at) / RFU ECM1 (11717891_a_at) / Fold change /veh ECM1 (11717891_a_at) / RFU IL23R (11748794_a_at) / Fold change /veh IL23R (11748794_a_at) / RFU TNFAIP8L3 (11732012_x_at) / Fold change /veh TNFAIP8L3 (11732012_x_at) / RFU MBOAT4 (11741988_at) / Fold change /veh MBOAT4 (11741988_at) / RFU 11764193_at / Fold change /veh 11764193_at / RFU TMEM53 (11763286_at) / Fold change /veh TMEM53 (11763286_at) / RFU MAGEB2 (11727129_at) / Fold change /veh MAGEB2 (11727129_at) / RFU TMEM200A (11744735_a_at) / Fold change /veh TMEM200A (11744735_a_at) / RFU CCDC152 (11751479_a_at) / Fold change /veh CCDC152 (11751479_a_at) / RFU FAM211A (11726209_a_at) / Fold change /veh FAM211A (11726209_a_at) / RFU RGS16 (11746705_a_at) / Fold change /veh RGS16 (11746705_a_at) / RFU VCAN (11755009_s_at) / Fold change /veh VCAN (11755009_s_at) / RFU RHOB (11743442_s_at) / Fold change /veh RHOB (11743442_s_at) / RFU RGS16 (11720943_a_at) / Fold change /veh RGS16 (11720943_a_at) / RFU RGS16 (11720944_at) / Fold change /veh RGS16 (11720944_at) / RFU, VPS4B / Fold change vs veh, VPS4B / RFU, CREB1 / Fold change vs veh, CREB1 / RFU, DNAJC13 / Fold change vs veh, DNAJC13 / RFU, GNAQ / Fold change vs veh, GNAQ / RFU, CDK5R1 / Fold change vs veh, CDK5R1 / RFU, ZRANB3 / Fold change vs veh, ZRANB3 / RFU, CUL4A / Fold change vs veh, CUL4A / RFU, CCNY / Fold change vs veh, CCNY / RFU, UFL1 / Fold change vs veh, UFL1 / RFU, COG3 / Fold change vs veh, COG3 / RFU, DIAPH2 / Fold change vs veh, DIAPH2 / RFU, SKA2 / Fold change vs veh, SKA2 / RFU, AFF3 / Fold change vs veh, AFF3 / RFU, LMF1 / Fold change vs veh, LMF1 / RFU, IPO11 / Fold change vs veh, IPO11 / RFU, DFFB / Fold change vs veh, DFFB / RFU, FOXP1 / Fold change vs veh, FOXP1 / RFU, CARD8 / Fold change vs veh, CARD8 / RFU, STRN3 / Fold change vs veh, STRN3 / RFU, ADK / Fold change vs veh, ADK / RFU, RASSF2 / Fold change vs veh, RASSF2 / RFU, WIPF1 / Fold change vs veh, WIPF1 / RFU, LARP1B / Fold change vs veh, LARP1B / RFU, RASA1 / Fold change vs veh, RASA1 / RFU, RB1 / Fold change vs veh, RB1 / RFU, PPFIA1 / Fold change vs veh, PPFIA1 / RFU, MAT2A / Fold change vs veh, MAT2A / RFU, CCT5 / Fold change vs veh, CCT5 / RFU, WDR92 / Fold change vs veh, WDR92 / RFU, CUX1 / Fold change vs veh, CUX1 / RFU, TTC7A / Fold change vs veh, TTC7A / RFU, TMEM135 / Fold change vs veh, TMEM135 / RFU, DEPTOR / Fold change vs veh, DEPTOR / RFU, CPM / Fold change vs veh, CPM / RFU, DNAJB6 / Fold change vs veh, DNAJB6 / RFU, CACNA2D3 / Fold change vs veh, CACNA2D3 / RFU, DTX4 / Fold change vs veh, DTX4 / RFU, TFCP2 / Fold change vs veh, TFCP2 / RFU, GMCL1 /// GMCL1P1 / Fold change vs veh, GMCL1 /// GMCL1P1 / RFU, AEBP2 / Fold change vs veh, AEBP2 / RFU, SNHG1 /// SNORD22 /// SNORD25 /// SNORD26 /// SNORD27 /// SNORD28 /// SNORD29 /// SNORD31 / Fold change vs veh, SNHG1 /// SNORD22 /// SNORD25 /// SNORD26 /// SNORD27 /// SNORD28 /// SNORD29 /// SNORD31 / Fold change (Aza/veh), C12orf56 (ProbeSet 11735607_a_at) / Fold change (ACY-1035/veh), C12orf56 (ProbeSet 11735607_a_at) / Fold change (Aza/veh), FGFR1OP (ProbeSet 11751329_s_at) / Fold change (ACY-1035/veh), FGFR1OP (ProbeSet 11751329_s_at) / Fold change (Aza/veh), VPS36 (ProbeSet 11739960_a_at) / Fold change (ACY-1035/veh), VPS36 (ProbeSet 11739960_a_at) / RFU SYPL1 (11715823_x_at) / Fold change /veh SYPL1 (11715823_x_at) / RFU IGFBP7 (11715501_s_at) / Fold change /veh IGFBP7 (11715501_s_at) / RFU REEP3 (11722064_at) / Fold change /veh REEP3 (11722064_at) / RFU IGLL1 (11728026_x_at) / Fold change /veh IGLL1 (11728026_x_at): dose or concentration left out as unconfirmed
Conditions: MV-4-11 cells, 48 hours

## Nc1ncn([C@@H]2O[C@H](CO)[C@@H](O)[C@H]2O)c(=O)n1 [azacitidine]
  Fold change /veh 11764098_at: 1.18
